pIC50, pKi: −log10 of the molar value. Counter-ions that a name gives are not always drawn.
Tests used:
Lectin Pathway = Lectin Pathway Activation Assay in Human Serum (mannan-coated ELISA, C3c detection); assay type: biochemical; details: 1% human serum
Method: Microtiter ELISA plate was coated with mannan from Saccharomyces cerevisiae (Sigma-Aldrich, M7504) for overnight at 4° C. in coating buffer [15 mM Na2CO3, 35 mM NaHCO3]. Plate was blocked with 1% bovine serum albumin (BSA) (Sigma-Aldrich, A3294) in Tris-buffered Saline (TBS) [10 mM Tris-HCl, 140 mM NaCl] for 2 hours at room temperature. […] 100 μL of this mixture were then added to the plate and plate was incubated at 37° C. for up to an hour with gentle shaking, 200 rpm. After that, plate was washed thrice in wash buffer [TBS containing 5 mM CaCl2) and 0.05% Tween-20] and 100 μL of rabbit anti human C3c (Dako, A0062) diluted 1:5000 in wash buffer were added and incubated at 37° C. for 30 minutes.

mMASP-2 = mMASP-2 (Mus musculus, UniProt Q91WP0); experiment: Enzymatic assay for mMASP-2; assay type: biochemical
Chain of mMASP-2 (Q91WP0 20-685): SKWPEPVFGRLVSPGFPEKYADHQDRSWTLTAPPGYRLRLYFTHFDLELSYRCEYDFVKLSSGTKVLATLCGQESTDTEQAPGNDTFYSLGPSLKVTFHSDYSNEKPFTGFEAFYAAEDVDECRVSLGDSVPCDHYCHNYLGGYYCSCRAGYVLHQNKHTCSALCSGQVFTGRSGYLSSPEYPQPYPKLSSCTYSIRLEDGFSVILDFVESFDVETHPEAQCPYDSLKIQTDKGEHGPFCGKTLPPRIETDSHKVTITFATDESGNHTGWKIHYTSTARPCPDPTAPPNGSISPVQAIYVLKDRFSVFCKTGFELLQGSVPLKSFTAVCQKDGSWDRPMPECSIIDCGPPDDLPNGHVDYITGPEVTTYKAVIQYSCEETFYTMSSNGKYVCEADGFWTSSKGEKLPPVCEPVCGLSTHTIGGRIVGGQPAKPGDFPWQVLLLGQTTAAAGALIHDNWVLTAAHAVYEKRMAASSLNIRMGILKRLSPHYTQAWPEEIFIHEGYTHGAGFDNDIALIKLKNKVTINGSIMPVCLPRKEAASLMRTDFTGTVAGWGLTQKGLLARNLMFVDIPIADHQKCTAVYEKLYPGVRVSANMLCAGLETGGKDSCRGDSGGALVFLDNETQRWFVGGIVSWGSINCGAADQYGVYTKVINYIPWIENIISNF

| SMILES | pIC50 (Lectin Pathway) | pKi (mMASP-2) | pIC50 (Lectin Pathway; mannan-coated plate) |
| --- | --- | --- | --- |
| N=C(N)c1ccc(CNC(=O)[C@@H]2CCN2C(=O)[C@H](NCC(=O)O)C2CCCCC2)cc1 [compound 999, melagatran, reference compound] | 4.30 to 6.30 |  |  |
| C[C@H](NC(=O)[C@H](N)CCc1ccccc1)C(=O)NCc1ccc(C(=N)N)cc1 [compound 1024] | > 6.30 |  |  |
| N=C(N)c1ccc(CNC(=O)[C@@H]2CCCN2C(=O)[C@H](N)C2CCCCC2)cc1 [compound 1027] | 5.30 to 7.30 |  |  |
| C[C@H](NC(=O)c1cc(-c2ccccc2)c[nH]1)C(=O)NCc1ccc(C(=N)N)cc1 [compound 1030] |  | > 6.30 |  |
| N=C(N)c1ccc(CNC(=O)[C@@H]2CCN2C(=O)[C@H]2Cc3ccccc3CN2)cc1 [compound 1034] | 4.30 to 6.30 |  |  |
| C[C@H](NC(=O)[C@H]1C[C@H](c2ccccc2)CN1)C(=O)NCc1ccc(C(=N)N)cc1 [compound 1036] | > 6.30 | > 6.30 |  |
| N=C(N)c1ccc(CNC(=O)[C@@H]2CCN2C(=O)[C@H](N)CCc2ccccc2)cc1 [compound 1038] | > 6.30 |  |  |
| Cc1ccc(CC[C@@H](N)C(=O)N[C@@H](C)C(=O)NCc2ccc(C(=N)N)cc2)cc1 [compound 1043] | 5.30 to 7.30 |  |  |
| C[C@H](NC(=O)[C@H](N)CCc1ccc(F)cc1)C(=O)NCc1ccc(C(=N)N)cc1 [compound 1047] | 5.30 to 7.30 |  |  |
| C[C@H](NC(=O)[C@H](N)CCc1cccc(F)c1)C(=O)NCc1ccc(C(=N)N)cc1 [compound 1048] | 5.30 to 7.30 |  |  |
| N=C(N)c1ccc(CNC(=O)[C@@H]2CCN2C(=O)[C@H](N)C2Cc3ccccc3C2)cc1 [compound 1058, (S)-1-((R)-2-Amino-2-(2,3-dihydro-1H-inden-2-yl)acetyl)-N-(4-carbamimidoylbenzyl)azetidine-2-carboxamide] | 5.30 to 7.30 |  |  |
| C[C@H](NC(=O)[C@H](N)C1Cc2ccccc2C1)C(=O)NCc1ccc2nc(N)[nH]c2c1 [compound 1059] | 5.30 to 7.30 | > 6.30 |  |
| C[C@H](NC(=O)[C@H](N)CCc1ccc(Cl)cc1)C(=O)NCc1ccc(C(=N)N)cc1 [compound 1080] | 5.30 to 7.30 |  |  |
| C[C@H](NC(=O)[C@H]1C[C@H](c2ccccc2)CN1)C(=O)NCc1ccc2c(N)nccc2c1 [compound 1090] |  | > 6.30 |  |
| C[C@H](NC(=O)[C@H](N)Cc1cccc2ccccc12)C(=O)NCc1ccc(C(=N)N)cc1 [compound 1092] | 5.30 to 7.30 |  |  |
| CN(CC(=O)NCc1ccc(C(=N)N)cc1)C(=O)[C@H](NCC(=O)O)C1CCCCC1 [compound 1096] | 4.30 to 6.30 |  |  |
| C[C@H](NC(=O)[C@H]1Cc2c([nH]c3ccccc23)CN1)C(=O)NCc1ccc(C(=N)N)cc1 [compound 1097] |  | > 6.30 |  |
| C[C@@H](C(=O)NCc1ccc(C(=N)N)cc1)N(C)C(=O)[C@H](NCC(=O)O)C1CCCCC1 [compound 1107] | 4.30 to 6.30 |  |  |
| C[C@H](NC(=O)[C@@H](CCc1ccccc1)NCC(=O)O)C(=O)NCc1ccc(C(=N)N)cc1 [compound 1110] | > 6.30 |  |  |
| C[C@H](NC(=O)[C@H](N)CCc1cc(Cl)cc(Cl)c1)C(=O)NCc1ccc(C(=N)N)cc1 [compound 1118] |  | > 6.30 |  |

| SMILES | pIC50 (Lectin Pathway) | pKi (mMASP-2) | pIC50 (Lectin Pathway; mannan-coated plate) |
| --- | --- | --- | --- |
| N=C(N)c1ccc(CNC(=O)[C@@H]2CCN2C(=O)[C@@H](CCc2ccccc2)NCC(=O)O)cc1 [compound 1124] | > 6.30 |  |  |
| Cc1nc(N)ccc1CNC(=O)[C@H](C)NC(=O)[C@H]1C[C@@H](c2cccc(CN)c2)CN1 [compound 1291, (2R,4S)—N—((S)-1-(((6-Amino-2-methylpyridin-3-yl)methyl)amino)-1-oxopropan-2-yl)-4-(3-(aminomethyl)phenyl)pyrrolidine-2-carboxamide Dihydrochloride] |  | 4.60 to 5.00 |  |
| C[C@H](NC(=O)[C@H]1C[C@H](c2ccccc2)CN1)C(=O)NCc1ccc(/C(N)=N/O)cc1 [compound 1292] |  | 4.60 to 5.00 |  |
| C[C@H](NC(=O)[C@H](N)CCc1ccccc1)C(=O)NCc1cc(Cl)ccc1-n1cnnn1 [compound 1325, (R)-2-amino-N—((S)-1-((5-chloro-2-(1H-tetrazol-1-yl)benzyl)amino)-1-oxopropan-2-yl)-4-phenylbutanamide] |  | 4.60 to 5.00 |  |
| CC(=O)Nc1ccc(CCN[C@H](CCc2ccccc2)C(=O)N[C@@H](C)C(=O)NCc2ccc(N)nc2C)cc1 [compound 1368, (R)-2-((4-Acetamidophenethyl)amino)-N—((S)-1-(((6-amino-2-methylpyridin-3-yl)methyl)amino)-1-oxopropan-2-yl)-4-phenylbutanamide] |  |  | 6.30 to 7.30 |
| Cc1nc(N)ccc1CNC(=O)[C@H](C)NC(=O)[C@H]1C[C@H](Cc2ccccc2-c2ccccc2)CN1 [compound 1373, (2R,4S)-4-([1,1′-Biphenyl]-2-ylmethyl)-N—((S)-1-(((6-amino-2-methylpyridin-3-yl)methyl)amino)-1-oxopropan-2-yl)pyrrolidine-2-carboxamide] |  |  | 6.30 to 7.30 |
| CCCCCN[C@H](CCc1ccccc1)C(=O)N[C@@H](C)C(=O)NCc1ccc(N)nc1C [compound 1377, (R)—N—((S)-1-(((6-Amino-2-methylpyridin-3-yl)methyl)amino)-1-oxopropan-2-yl)-2-(pentylamino)-4-phenylbutanamide] |  |  | 6.30 to 7.30 |
| Cc1nc(N)ccc1CNC(=O)[C@H](C)NC(=O)[C@@H](CCc1ccccc1)NCc1ccc(C(=O)N2CCOCC2)cc1 [compound 1381, (R)—N—((S)-1-(((6-Amino-2-methylpyridin-3-yl)methyl)amino)-1-oxopropan-2-yl)-2-((4-(morpholine-4-carbonyl)benzyl)amino)-4-phenylbutanamide] |  |  | 5.30 to 6.30 |
| C[C@H](NC(=O)[C@H]1C[C@H](c2ccccc2)CN1)C(=O)NCc1cc(Cl)cc(Cl)c1O [compound 1395, (2R,4R)—N—((S)-1-((3,5-dichloro-2-hydroxybenzyl)amino)-1-oxopropan-2-yl)-4-phenylpyrrolidine-2-carboxamide] |  |  | 4.30 to 5.30 |
| Cc1nc(N)ccc1CNC(=O)[C@H](C)NC(=O)[C@H]1C[C@@H](c2ccccc2)CCN1CC(=O)O [compound 1398, 2-((2R,4S)-2-(((S)-1-(((6-Amino-2-methylpyridin-3-yl)methyl)amino)-1-oxopropan-2-yl)carbamoyl)-4-phenylpiperidin-1-yl)acetic acid] |  |  | 6.30 to 7.30 |
| Cc1nc(N)ccc1CNC(=O)[C@H](C)NC(=O)[C@H]1C[C@H](Cc2cc(-c3ccccc3)cs2)CN1 [compound 1399, (2R,4R)—N—((S)-1-(((6-Amino-2-methylpyridin-3-yl)methyl)amino)-1-oxopropan-2-yl)-4-((4-phenylthiophen-2-yl)methyl)pyrrolidine-2-carboxamide] |  |  | 6.30 to 7.30 |
| Cc1nc(N)ccc1CNC(=O)[C@H](C)NC(=O)[C@H]1C[C@H](Cc2cccc(-c3ccccc3)c2)CN1 [compound 1406, (2R,4S)-4-([1,1′-Biphenyl]-3-ylmethyl)-N—((S)-1-(((6-amino-2-methylpyridin-3-yl)methyl)amino)-1-oxopropan-2-yl)pyrrolidine-2-carboxamide] |  |  | 6.30 to 7.30 |
| COc1cc(C[C@@H]2CN[C@@H](C(=O)N[C@@H](C)C(=O)NCc3ccc(N)nc3C)C2)cc(OC)c1 [compound 1407, (2R,4S)—N—((S)-1-(((6-Amino-2-methylpyridin-3-yl)methyl)amino)-1-oxopropan-2-yl)-4-(3,5-dimethoxybenzyl)pyrrolidine-2-carboxamide] |  |  | 6.30 to 7.30 |
| C[C@H](NC(=O)[C@H]1C[C@H](Cc2ccccc2-c2ccc(Cl)s2)CN1)C(=O)NCc1cc(Cl)ccc1-n1cnnn1 [compound 1409, (2R,4S)—N—((S)-1-((5-Chloro-2-(1H-tetrazol-1-yl)benzyl)amino)-1-oxopropan-2-yl)-4-(2-(5-chlorothiophen-2-yl)benzyl)pyrrolidine-2-carboxamide] |  |  | 5.30 to 6.30 |
| Cc1nc(N)ccc1CNC(=O)[C@H](C)NC(=O)[C@H]1C[C@H](Cc2ccccc2-c2ccc(Cl)s2)CN1 [compound 1410, (2R,4S)—N—((S)-1-(((6-Amino-2-methylpyridin-3-yl)methyl)amino)-1-oxopropan-2-yl)-4-(2-(5-chlorothiophen-2-yl)benzyl)pyrrolidine-2-carboxamide] |  |  | 5.30 to 6.30 |
| Cc1nc(N)ccc1CNC(=O)[C@H](C)NC(=O)[C@H]1C[C@@H](c2ccccc2)CCN1CCC(=O)O [compound 1411, 3-((2R,4S)-2-(((S)-1-(((6-Amino-2-methylpyridin-3-yl)methyl)amino)-1-oxopropan-2-yl)carbamoyl)-4-phenylpiperidin-1-yl)propanoic acid] |  |  | 6.30 to 7.30 |
| Cc1nc(N)ccc1CNC(=O)[C@H](C)NC(=O)[C@H]1C[C@H](Cc2cccc(C(=O)N3CCC3)c2)CN1 [compound 1420, (2R,4S)—N—((S)-1-(((6-Amino-2-methylpyridin-3-yl)methyl)amino)-1-oxopropan-2-yl)-4-(3-(azetidine-1-carbonyl)benzyl)pyrrolidine-2-carboxamide] |  |  | 6.30 to 7.30 |
| C[C@H](NC(=O)[C@H]1C[C@@H](c2ccccc2)CCN1)C(=O)NCc1cc(Cl)ccc1-n1cnnn1 [compound 1426, (2R,4S)—N—((S)-1-((5-Chloro-2-(1H-tetrazol-1-yl)benzyl)amino)-1-oxopropan-2-yl)-4-phenylpiperidine-2-carboxamide] |  |  | > 7.30 |
| Cc1cccc(CNC(=O)[C@H](C)NC(=O)[C@H]2C[C@H](Cc3ccccc3)CN2)c1-n1ncnn1 [compound 1437, (2R,4S)-4-Benzyl-N—((S)-1-((3-methyl-2-(2H-tetrazol-2-yl)benzyl)amino)-1-oxopropan-2-yl)pyrrolidine-2-carboxamide] |  | 5.00 to 5.60 |  |
| C[C@H](NC(=O)[C@H]1C[C@H](c2ccccc2)CN1)C(=O)NCc1cnc2c(c1)c(Cl)cn2C [compound 1442, (2R,4R)—N—((S)-1-(((3-Chloro-1-methyl-1H-pyrrolo[2,3-b]pyridin-5-yl)methyl)amino)-1-oxopropan-2-yl)-4-phenylpyrrolidine-2-carboxamide] |  |  | 5.30 to 6.30 |

Reference: US20260193179A9 (priority 2018, published 2026)
